Tests used:
NRF2/Keap1 = target: T1, NRF2/Keap1 (Homo sapiens, UniProt Q14145); assay: NRF2-Keap1 TR-FRET Low Protein Assay (full length NRF2 and full length Keap1); assay type: binding; conditions: low protein: 1.25 nM Keap1 FlagHis, 2.5 nM biotin-NRF2 added
T1 construct: full length NRF2 protein and full length Keap1 protein (Keap1 exists a dimer) are used
Description: In the NRF2-Keap1 TR-FRET (time-resolved fluorescence resonance energy transfer) low protein assay, full length NRF2 protein and full length Keap1 protein (Keap1 exists a dimer) are used. The assay detects a compound's ability to displace the binding of Keap1 FlagHis with biotinylated Avi-NRF2 protein. Biotin-NRF2 binds to streptavidin-europium (a component of the detection mix) and Keap1 FlagHis is recognized by anti-Flag APC (allophycocyanin) antibody (also a component of the detection mix). If binding occurs between the two proteins, there will be an energy transfer from the Eu+3 (donor) at 615 nm to the APC (acceptor) at 665 nm. A potential NRF2 inhibitor will cause a reduction in the TR-FRET signal by interfering with the binding of Keap1 to NRF2.
Ten nanoliters of 100× compound dose response curves (serial 3-fold dilutions) in DMSO are stamped using an Echo liquid handling system (Labcyte) into 384-well, low volume, black assay plates (Greiner, #784076), with DMSO in columns 6 and 18. An additional 90 nl DMSO is added to each well, to bring the total volume to 100 nl per well. The top concentration of compound is located in columns 1 and 13, with the serial dilutions going across the row. All reagents are diluted in assay buffer (50 mM Tris, pH 8.0, 5 mM MgCl2, 100 mM NaCl, 0.005% BSA, 1 mM DTT, and 2 mM CHAPS. The BSA, DTT, and CHAPS are added to the assay buffer on the day of assay. Using a Multidrop Combi (Thermo Electron Corporation) equipped with a metal tip dispenser, 5 ul of 1.25 nM Keap1 FlagHis protein is added to all wells of the compound plate, with the exception of the wells in column 18. Wells in column 18 receive 5 ul of assay buffer instead. Plates are centrifuged at 500 rpm for 1 minute, covered with a plate lid, and incubated at 37° C. for 2.25 hours. Plates are then removed from the incubator and allowed to cool to RT for 15 minutes. Five microliters of 2.5 nM biotin-NRF2 protein is then added to all wells of the plates and the plates are spun at 500 rpm for 1 minute, followed by incubating at 4° C. for 1.25 hours. The plates are then allowed to warm to RT for 15 minutes, followed by the addition of 10 ul of detection mix (1 nM Streptavidin Eu+ W1024 and 5 ug/ml mouse anti-DYKDDDDK IgG conjugated to SureLight APC antibody; both from Columbia Biosciences) to all wells. Plates are spun at 500 rpm for 1 minute, incubated for 1 hour at RT, and read on an Envision plate reader using a 320 nm excitation filter and 615 nm and 665 nm emission filters. Compound response (% inhibition) and potency (pIC50) are calculated based on the ratio of the two emissions (665 nm/615 nm) and then the transformed data is normalized against controls in the assay (control 1=1% DMSO in the presence of NRF2 and Keap1 protein and control 2=1% DMSO in the presence of only the NRF2 protein). Data analysis is handled using the software package Abase XE (Surrey, United Kingdom). The % inhibition values are calculated from the ratio (transformed) data by the equation: 100−(100*(compound response-average control 2)/(average control 1−average control 2)). For calculation of pIC50s, Abase XE uses a four parameter equation.

Keap1/NRF2 = target: T2, Keap1/NRF2 (Homo sapiens, UniProt Q14145); assay: NRF2-Keap1 FP Assay (Kelch domain (321-609) of Keap1, TAMRA-labeled NRF2 ETGE peptide); assay type: binding; conditions: Keap1 (321-609) 20 nM, Tamra labeled peptide 8 nM
T2 construct: Keap1 (321-609) is diluted to 40 nM (2×) in 1× assay buffer
T2 sequence (Q14145 321-609): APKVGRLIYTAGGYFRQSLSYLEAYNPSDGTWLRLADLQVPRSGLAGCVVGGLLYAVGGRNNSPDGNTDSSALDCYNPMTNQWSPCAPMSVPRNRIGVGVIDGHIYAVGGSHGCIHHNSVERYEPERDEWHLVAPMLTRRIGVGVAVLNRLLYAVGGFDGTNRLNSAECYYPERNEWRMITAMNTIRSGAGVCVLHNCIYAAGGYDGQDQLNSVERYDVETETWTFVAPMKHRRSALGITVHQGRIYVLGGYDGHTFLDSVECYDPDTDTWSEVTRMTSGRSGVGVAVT
How it was run: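 Fluorescence polarization competition: Keap1 Kelch (321-609) at 20 nM final and TAMRA-ETGE 16-mer peptide at 8 nM final with 3-fold compound dilutions, 1 h room temperature in Tris pH 8.0 buffer (NaCl, MgCl2, DTT, CHAPS, BSA). mP normalized to protein+peptide and peptide-alone controls; pIC50 by four-parameter fit.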

[1] = tested on: NQO1 specific enzyme activity in BEAS-2B cells; assay: BEAS-2B NQO1 MTT Assay; assay type: cell-based; conditions: Homo sapiens, BEAS-2B, 48 h, NQO1 specific activity induction
How it was run: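 BEAS-2B cells exposed to compound for 48 h at 37 °C, 5% CO2, then lysed. NQO1 activity in crude lysate read kinetically by MTT cocktail absorbance at 570 nm over 30 min. pEC50 from ΔOD/min versus log concentration, 3-parameter fit.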

T1 sequence (Q14145 whole entry): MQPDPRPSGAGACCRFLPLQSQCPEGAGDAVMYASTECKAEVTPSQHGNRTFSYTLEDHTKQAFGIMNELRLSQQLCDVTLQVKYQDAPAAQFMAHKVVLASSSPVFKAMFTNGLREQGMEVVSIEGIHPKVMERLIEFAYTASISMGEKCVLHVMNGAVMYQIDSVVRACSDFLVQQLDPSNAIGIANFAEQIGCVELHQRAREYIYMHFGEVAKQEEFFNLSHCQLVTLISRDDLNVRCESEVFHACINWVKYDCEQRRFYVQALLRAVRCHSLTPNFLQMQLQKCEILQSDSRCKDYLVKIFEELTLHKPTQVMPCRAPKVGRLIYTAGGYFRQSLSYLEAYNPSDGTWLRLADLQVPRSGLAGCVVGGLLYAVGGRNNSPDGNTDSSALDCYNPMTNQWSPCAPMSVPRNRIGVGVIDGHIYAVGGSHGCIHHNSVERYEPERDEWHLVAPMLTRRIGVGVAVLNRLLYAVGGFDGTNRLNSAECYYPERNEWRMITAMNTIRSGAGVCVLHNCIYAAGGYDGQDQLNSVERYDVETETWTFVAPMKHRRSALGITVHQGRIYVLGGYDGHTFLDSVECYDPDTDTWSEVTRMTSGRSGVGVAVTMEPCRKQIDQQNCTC

SMILES | IC50 (NRF2/Keap1) [nM] | IC50 (Keap1/NRF2) [nM] | EC50 [1] [nM]
Cn1cc([C@@H]2C[C@H]2c2c(C(=O)O)cnn2-c2cccc(C3CCCN(S(=O)(=O)c4ccccc4)C3)c2)nn1 (stereo partly drawn) [Example 30, 5-((1R,2R)-2-(1-methyl-1H-1,2,3-triazol-4-yl)cyclopropyl)-1-(3-(1-(phenylsulfonyl)piperidin-3-yl)phenyl)-1H-pyrazole-4-carboxylic Acid] | < 10 | 10 to 100 | 1000 to 10000
Cn1cc([C@@H]2C[C@H]2c2c(C(=O)O)cnn2-c2cccc(C3CCCN(C(=O)C(C)(C)C)C3)c2)nn1 (stereo partly drawn) [Example 32, 5-((1R,2R)-2-(1-methyl-1H-1,2,3-triazol-4-yl)cyclopropyl)-1-(3-(1-pivaloylpiperidin-3-yl)phenyl)-1H-pyrazole-4-carboxylic Acid] | 10 to 100 | 10 to 100 | 100 to 1000
Cn1cc([C@@H]2C[C@H]2c2c(C(=O)O)cnn2-c2cccc(C3CCCN(C(=O)OC(C)(C)C)C3)c2)nn1 (stereo partly drawn) [Example 26, 1-(3-(1-(tert-butoxycarbonyl)piperidin-3-yl)phenyl)-5-((1R,2R)-2-(1-methyl-1H-1,2,3-triazol-4-yl)cyclopropyl)-1H-pyrazole-4-carboxylic Acid] | 10 to 100 | 10 to 100 | 1000 to 10000
